# Read-outs that look alike come from different tables or passages of the source.
# Tests used:
# HCV JFH1-2a replicon = experiment: HCV JFH1-2a subgenomic replicon assay (Renilla luciferase, Huh 7.5.1 replicon cells); type: cell-based; conditions: Hepatitis C virus
# HCV H77-1a replicon = experiment: HCV H77-1a subgenomic replicon assay; type: cell-based; conditions: Hepatitis C virus; Table 4; read-out: Anti-HCV Activity EC50 ± SD Replicon Assay H77-1a
# HCV Con1-1b replicon = experiment: HCV Con1-1b subgenomic replicon assay; type: cell-based; conditions: Hepatitis C virus; Table 4; read-out: Anti-HCV Activity EC50 ± SD Replicon Assay Con1-1b
# [1] = Cell proliferation (cytotoxicity) assay, WST-1; type: cell-based; conditions: human, Huh 7.5.1 cells, Table 4, 48 h
# Description: Cell Proliferation Assay: Huh 7.5.1 cells were seeded at a density of 2 × 10^4 cells per well in 96-well plates overnight. The cells were respectively incubated with serial diluted compounds for 48 h, and the viability of Huh7.5.1 cells was determined in 96-well tissue culture plates using cell proliferation reagent WST-1 (Roche, Basel, Switzerland). The absorbance (OD450 /reference OD630) was measured to detect the cytotoxicity of compounds, according to the manufacturer’s protocol of Cell Proliferation Reagent WST-1.
# [2] = system: JFH1-2a virus (wild type); experiment: HCV virus assay, JFH1-2a wild type, Huh 7.5.1 cells; conditions: Hepatitis C virus, Huh-7.5.1, read-out: Anti-HCV Activity EC50 ± SD Virus Assay JFH1-2a
# [3] = Table 1, mean ± SD of three independent experiments, read-out: Anti-HCV JFH1-2a Replicon Assay EC50 ± SD
# [4] = Table 4, read-out: Anti-HCV Activity EC50 ± SD Replicon Assay JFH1-2a
SMILES,EC50 (HCV JFH1-2a replicon; [3]),EC50 (HCV JFH1-2a replicon; [4]),EC50 (HCV H77-1a replicon),EC50 (HCV Con1-1b replicon),CC50 at 48 h [1],EC50 [2],melting point
O=C(NC(=O)c1c(O)cccc1O)Nc1cccc2ccccc12 [Compound 2],> 10000 nM,–,–,–,–,–,–
O=C(NCc1ccccc1)NC(=O)c1c(O)cccc1O [Compound 3],> 50000 nM,–,–,–,–,–,–
O=C(NC(=O)c1c(O)cccc1O)NC1CCCCC1 [Compound 4],> 50000 nM,–,–,–,–,–,–
O=C(NC(=O)c1ccccc1Cl)NC1c2ccccc2-c2ccccc21 [Compound 5],> 50000 nM,–,–,–,–,–,–
O=C(NC(=O)c1ccccc1[N+](=O)[O-])NC1c2ccccc2-c2ccccc21 [Compound 6],> 50000 nM,–,–,–,–,–,–
N#Cc1ccccc1C(=O)NC(=O)NC1c2ccccc2-c2ccccc21 [Compound 7],> 50000 nM,–,–,–,–,–,–
O=C(NC(=O)c1ccccc1F)NC1c2ccccc2-c2ccccc21 [Compound 8],1650 ± 320 nM,–,–,–,–,–,–
O=C(NC(=O)c1ccccc1C(F)(F)F)NC1c2ccccc2-c2ccccc21 [Compound 9],> 10000 nM,–,–,–,–,–,–
CSc1ccccc1C(=O)NC(=O)NC1c2ccccc2-c2ccccc21 [Compound 10],> 50000 nM,–,–,–,–,–,–
O=C(NC(=O)c1c(F)cccc1F)NC1c2ccccc2-c2ccccc21 [Compound 11],> 50000 nM,–,–,–,–,–,–
CSc1cccc(F)c1C(=O)NC(=O)NC1c2ccccc2-c2ccccc21 [Compound 12],> 50000 nM,–,–,–,–,–,–
COc1cccc(Cl)c1C(=O)NC(=O)NC1c2ccccc2-c2ccccc21 [Compound 13],> 50000 nM,–,–,–,–,–,–
"CC(=O)Oc1cccc(OC(C)=O)c1C(=O)NC(=O)NC1c2ccccc2-c2ccccc21 [Compound 15, 1-[2,6-Bis-(acetoxy)benzoyl]-3-(9H-fluoren-9-yl)-urea]",460 ± 50 nM,460 ± 50 nM,800 ± 130 nM,360 ± 40 nM,> 16000 nM,740 ± 360 nM,–
O=C(NC(=O)c1c(O)cccc1OCCO)NC1c2ccccc2-c2ccccc21 [Compound 16],> 20000 nM,–,–,–,–,–,–
O=C(NC(=O)c1c(OCCO)cccc1OCCO)NC1c2ccccc2-c2ccccc21 [Compound 17],> 20000 nM,–,–,–,–,–,–
"CCC(=O)Oc1cccc(O)c1C(=O)NC(=O)NC1c2ccccc2-c2ccccc21 [Compound 19, 1-(2-Hydroxy-6-propionyloxybenzoyl)-3-(9H-fluoren-9-yl)-urea]",–,940 ± 70 nM,380 ± 220 nM,720 ± 200 nM,> 16000 nM,470 ± 40 nM,206 to 216 °C
"CCCC(=O)Oc1cccc(O)c1C(=O)NC(=O)NC1c2ccccc2-c2ccccc21 [Compound 20, 1-(2-Hydroxy-6-n-butyryloxybenzoyl)-3-(9H-fluoren-9-yl)-urea]",–,700 ± 20 nM,980 ± 30 nM,490 ± 20 nM,> 16000 nM,280 ± 20 nM,204 to 210 °C
"O=C(NC(=O)c1c(O)cccc1OC(=O)C1CC1)NC1c2ccccc2-c2ccccc21 [Compound 21, 1-(2-Cyclopropyl formyloxy-6-hydroxybenzoyl)-3-(9H-fluoren-9-yl)-urea]",–,430 ± 80 nM,570 ± 200 nM,850 ± 240 nM,> 16000 nM,780 ± 350 nM,194 to 199 °C
"CCCCC(=O)Oc1cccc(O)c1C(=O)NC(=O)NC1c2ccccc2-c2ccccc21 [Compound 22, 1-(2-Hydroxy-6-valeryloxybenzoyl)-3-(9H-fluoren-9-yl)-urea]",–,470 ± 20 nM,1000 ± 60 nM,440 ± 100 nM,> 16000 nM,440 ± 30 nM,193 to 199 °C
"CC(C)(C)C(=O)Oc1cccc(O)c1C(=O)NC(=O)NC1c2ccccc2-c2ccccc21 [Compound 23, 1-(2-Hydroxy-6-trimethylacetoxyloxybenzoyl)-3-(9H-fluoren-9-yl)-urea]",–,480 ± 20 nM,670 ± 50 nM,830 ± 280 nM,> 16000 nM,530 ± 50 nM,187 to 189 °C
"CCCCCC(=O)Oc1cccc(O)c1C(=O)NC(=O)NC1c2ccccc2-c2ccccc21 [Compound 24, 1-(2-Hexanoyloxy-6-hydroxybenzoyl)-3-(9H-fluoren-9-yl)-urea]",–,1080 ± 50 nM,1050 ± 10 nM,1000 ± 10 nM,> 16000 nM,740 ± 370 nM,200 to 222 °C
"O=C(NC(=O)c1c(OC(=O)c2ccccc2)cccc1OC(=O)c1ccccc1)NC1c2ccccc2-c2ccccc21 [Compound 26, 1-[2,6-Bis-(benzoyloxy)benzoyl]-3-(9H-fluoren-9-yl)-urea]",–,360 ± 30 nM,530 ± 210 nM,390 ± 50 nM,> 16000 nM,1090 ± 30 nM,211 to 213 °C
"CCC(=O)Oc1cccc(OC(=O)CC)c1C(=O)NC(=O)NC1c2ccccc2-c2ccccc21 [Compound 27, 1-[2,6-Bis-(propionyloxy)benzoyl]-3-(9H-fluoren-9-yl)-urea]",–,380 ± 30 nM,520 ± 270 nM,380 ± 20 nM,> 16000 nM,420 ± 80 nM,165 to 167 °C
"CCCC(=O)Oc1cccc(OC(=O)CCC)c1C(=O)NC(=O)NC1c2ccccc2-c2ccccc21 [Compound 28, 1-[2,6-Bis-(n-butyryloxy)benzoyl]-3-(9H-fluoren-9-yl)-urea]",–,840 ± 320 nM,790 ± 200 nM,620 ± 150 nM,> 16000 nM,680 ± 470 nM,186 to 188 °C
"O=C(NC(=O)c1c(OC(=O)C2CC2)cccc1OC(=O)C1CC1)NC1c2ccccc2-c2ccccc21 [Compound 29, 1-[2,6-Bis-(cyclopropylformyloxy)benzoyl]-3-(9H-fluoren-9-yl)-urea]",–,420 ± 140 nM,520 ± 140 nM,600 ± 190 nM,> 16000 nM,740 ± 350 nM,183 to 186 °C
"CCCCC(=O)Oc1cccc(OC(=O)CCCC)c1C(=O)NC(=O)NC1c2ccccc2-c2ccccc21 [Compound 30, 1-[2,6-Bis-(valeryloxy)benzoyl]-3-(9H-fluoren-9-yl)-urea]",–,620 ± 50 nM,730 ± 110 nM,830 ± 260 nM,> 16000 nM,470 ± 10 nM,172 to 174 °C
"CC(C)(C)C(=O)Oc1cccc(OC(=O)C(C)(C)C)c1C(=O)NC(=O)NC1c2ccccc2-c2ccccc21 [Compound 31, 1-[2,6-Bis-(trimethylacetoxyloxy)benzoyl]-3-(9H-fluoren-9-yl)-urea]",–,750 ± 290 nM,870 ± 270 nM,560 ± 200 nM,> 16000 nM,840 ± 210 nM,202 to 205 °C
"CCCCCC(=O)Oc1cccc(OC(=O)CCCCC)c1C(=O)NC(=O)NC1c2ccccc2-c2ccccc21 [Compound 32, 1-[2,6-Bis-(hexanoyloxy)benzoyl]-3-(9H-fluoren-9-yl)-urea]",–,380 ± 50 nM,630 ± 290 nM,730 ± 340 nM,> 16000 nM,740 ± 310 nM,162 to 165 °C
"CCCCCCCC(=O)Oc1cccc(OC(=O)CCCCCCC)c1C(=O)NC(=O)NC1c2ccccc2-c2ccccc21 [Compound 33, 1-[2,6-Bis-(n-Octanoyloxy)benzoyl]-3-(9H-fluoren-9-yl)-urea]",–,980 ± 10 nM,540 ± 150 nM,730 ± 200 nM,> 16000 nM,950 ± 20 nM,152 to 153 °C

# From paper PMC6272715, “Discovery of Novel Small Molecule Anti-HCV Agents via the CypA Inhibitory Mechanism Using O-Acylation-Directed Lead Optimization” (Molecules, 2015)
